Laboratory results reported in PubChem BioAssay AID248 (DTP/NCI, 2004).
Values joined by “and” are separate entries in the source; they are usually repeats but may differ in a detail not shown here. Identical values can stand only once. Toxic doses and inconclusive results are not listed. Rule as the data show it: active = T/C of 150% or more; inactive = T/C below 125%.

Test system: L1210 leukemia ip in BDF1 mice, survival T/C
Assay: NCI In Vivo Anticancer Drug Screen. Data for tumor model L1210 Leukemia (intraperitoneal) in B6D2F1 (BDF1) mice
Details: endpoint: mean survival time, higher = longer survival
Outline: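 Value reflects the ratio of survival in compound-treated mice to survival in vehicle-treated controls, with both groups carrying the same transplanted tumor.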

[1] = dose: 100.0 mg/kg/injection, schedule: Q04DX003 (ip), vehicle: saline with Tween-80
[2] = dose: 200.0 mg/kg/injection, schedule: Q04DX003 (ip), vehicle: saline with Tween-80
[3] = dose: 100.0 mg/kg/injection, schedule: Q04DX002 (ip), vehicle: Klucel (hydroxypropylcellulose) (HPC)
[4] = dose: 200.0 mg/kg/injection, schedule: Q04DX002 (ip), vehicle: Klucel (hydroxypropylcellulose) (HPC)
[5] = dose: 400.0 mg/kg/injection, schedule: Q04DX002 (ip), vehicle: Klucel (hydroxypropylcellulose) (HPC)
[6] = dose: 100.0 mg/kg/injection, schedule: Q04DX003 (ip), vehicle: saline
[7] = dose: 200.0 mg/kg/injection, schedule: Q04DX003 (ip), vehicle: saline
[8] = dose: 100.0 mg/kg/injection, schedule: Q04DX003 (ip), vehicle: Klucel (hydroxypropylcellulose) (HPC)
[9] = dose: 200.0 mg/kg/injection, schedule: Q04DX003 (ip), vehicle: Klucel (hydroxypropylcellulose) (HPC)
[10] = dose: 400.0 mg/kg/injection, schedule: Q04DX003 (ip), vehicle: Klucel (hydroxypropylcellulose) (HPC)
[11] = dose: 100.0 mg/kg/injection, schedule: Q01DX001 (ip), vehicle: saline
[12] = dose: 12.5 mg/kg/injection, schedule: Q01DX009 (ip), vehicle: saline
[13] = dose: 25.0 mg/kg/injection, schedule: Q01DX009 (ip), vehicle: saline
[14] = dose: 100.0 mg/kg/injection, schedule: Q01DX001 (ip), vehicle: carboxymethylcellulose (CMC)
[15] = dose: 200.0 mg/kg/injection, schedule: Q01DX001 (ip), vehicle: carboxymethylcellulose (CMC)
[16] = dose: 400.0 mg/kg/injection, schedule: Q01DX001 (ip), vehicle: carboxymethylcellulose (CMC)
[17] = dose: 100.0 mg/kg/injection, schedule: Q01DX009 (ip), vehicle: saline with Tween-80
[18] = dose: 200.0 mg/kg/injection, schedule: Q01DX009 (ip), vehicle: saline with Tween-80
[19] = dose: 100.0 mg/kg/injection, schedule: Q01DX009 (ip), vehicle: saline
[20] = dose: 200.0 mg/kg/injection, schedule: Q01DX009 (ip), vehicle: saline
[21] = dose: 100.0 mg/kg/injection, schedule: Q01DX009 (ip), vehicle: Klucel (hydroxypropylcellulose) (HPC)
[22] = dose: 200.0 mg/kg/injection, schedule: Q01DX009 (ip), vehicle: Klucel (hydroxypropylcellulose) (HPC)
[23] = dose: 50.0 mg/kg/injection, schedule: Q01DX009 (ip), vehicle: saline with Tween-80
[24] = dose: 50.0 mg/kg/injection, schedule: Q01DX009 (ip), vehicle: saline
[25] = dose: 75.0 mg/kg/injection, schedule: Q01DX001 (ip), vehicle: saline
[26] = dose: 150.0 mg/kg/injection, schedule: Q01DX001 (ip), vehicle: saline
[27] = dose: 300.0 mg/kg/injection, schedule: Q01DX001 (ip), vehicle: saline
[28] = dose: 75.0 mg/kg/injection, schedule: Q01DX001 (ip), vehicle: other
[29] = dose: 150.0 mg/kg/injection, schedule: Q01DX001 (ip), vehicle: other
[30] = dose: 300.0 mg/kg/injection, schedule: Q01DX001 (ip), vehicle: other

Measured: T/C

CCCC(O)(CC)CCC
inactive: [1] 100 % of control | [2] 100 % of control

Cc1ccc(C(=O)N/N=C/c2ccc3ccccc3c2)cc1
inactive: [3] 95 % of control | [4] 103 % of control | [5] 95 % of control

CC(C)OC(=O)Nc1cccc(C(F)(F)F)c1
inactive: [3] 103 % of control | [4] 88 % of control | [5] 106 % of control

CCC(C#N)C(=O)NC(N)=O (stereo unspecified)
inactive: [6] 97 % of control | [7] 92 % of control | dose: 400.0 mg/kg/injection, schedule: Q04DX003 (ip), vehicle: saline 91 % of control

Nc1nccc2n[nH]nc12
inactive: dose: 100.0 mg/kg/injection, schedule: Q01DX001 (ip), vehicle: Klucel (hydroxypropylcellulose) (HPC) 100 % of control | [8] 103 % of control | dose: 200.0 mg/kg/injection, schedule: Q01DX001 (ip), vehicle: Klucel (hydroxypropylcellulose) (HPC) 92 % of control | [9] 101 % of control | dose: 400.0 mg/kg/injection, schedule: Q01DX001 (ip), vehicle: Klucel (hydroxypropylcellulose) (HPC) 97 % of control | [10] 101 % of control

NC(=O)C(Br)c1ccccc1 (stereo unspecified)
inactive: [8] 101 % of control | [9] 98 % of control

CCNC(=S)NNC(=S)NNc1ccccc1
inactive: dose: 12.5 mg/kg/injection, schedule: Q04DX002 (ip), vehicle: other 102 % of control | dose: 25.0 mg/kg/injection, schedule: Q04DX002 (ip), vehicle: other 100 % of control | dose: 50.0 mg/kg/injection, schedule: Q04DX002 (ip), vehicle: other 102 % of control

CCCCC1=NCCc2c1cc1c([nH]c3ccccc31)c2C
inactive: [6] 96 % of control | [7] 95 % of control

CCCCCCN(CCCCCC)P(=O)(N1CC1C)N1CC1C (stereo unspecified)
inactive: dose: 50.0 mg/kg/injection, schedule: Q01DX001 (ip), vehicle: saline 104 % of control | [11] 101 % of control

OC(CCl)CBr (stereo unspecified)
inactive: dose: 6.25 mg/kg/injection, schedule: Q01DX009 (ip), vehicle: saline 96 % of control | dose: 6.25 mg/kg/injection, schedule: Q04DX003 (ip), vehicle: saline 97 % of control | [12] 96 % of control | dose: 12.5 mg/kg/injection, schedule: Q04DX003 (ip), vehicle: saline 92 % of control | [13] 94 % of control | dose: 25.0 mg/kg/injection, schedule: Q04DX003 (ip), vehicle: saline 93 % of control

CC(=O)OC1CC2C=CC1CC2 (stereo unspecified)
inactive: dose: 50.0 mg/kg/injection, schedule: Q01DX001 (ip), vehicle: carboxymethylcellulose (CMC) 111 % of control | [14] 101 % of control | [15] 95 % of control | [16] 101 % of control

CCNC(=O)N(Cc1ccccc1)Cc1ccccc1
inactive: [17] 98 % of control | [18] 93 % of control

COC(=O)C1=C(C(=O)OC)C2CC1C1OC21 (stereo unspecified)
inactive: [19] 96 % of control | [20] 98 % of control

CS(=O)(=O)N(c1ccccc1)c1ccccc1[N+](=O)[O-]
inactive: dose: 100.0 mg/kg/injection, schedule: Q01DX001 (ip), vehicle: other 117 % of control | dose: 200.0 mg/kg/injection, schedule: Q01DX001 (ip), vehicle: other 96 % of control | dose: 400.0 mg/kg/injection, schedule: Q01DX001 (ip), vehicle: other 111 % of control

O=Nc1ccc2ccccc2c1N=Nc1ccccc1C(=O)O
inactive: [21] 101 % of control | [22] 100 % of control | dose: 400.0 mg/kg/injection, schedule: Q01DX009 (ip), vehicle: Klucel (hydroxypropylcellulose) (HPC) 103 % of control

C=CCOC(=N)c1ccccc1
inactive: [23] 93 % of control | [17] 105 % of control | [18] 91 % of control

CCN(CC)C(=O)c1cccnc1
inactive: [12] 102 % of control | [13] 89 % of control | [24] 93 % of control | [25] 102 % of control | [19] 105 % of control | [26] 94 % of control | [20] 93 % of control | [27] 90 % of control

N=C(N=C(N)N)N(Cc1ccccc1)Cc1ccccc1
inactive: dose: 6.25 mg/kg/injection, schedule: Q01DX009 (ip), vehicle: water 103 % of control | dose: 6.25 mg/kg/injection, schedule: Q04DX003 (ip), vehicle: water 97 % of control | dose: 12.5 mg/kg/injection, schedule: Q01DX001 (ip), vehicle: water 107 % of control | dose: 12.5 mg/kg/injection, schedule: Q01DX009 (ip), vehicle: water 101 % of control | dose: 12.5 mg/kg/injection, schedule: Q04DX003 (ip), vehicle: water 103 % of control | dose: 25.0 mg/kg/injection, schedule: Q01DX001 (ip), vehicle: water 100 % of control | dose: 25.0 mg/kg/injection, schedule: Q01DX009 (ip), vehicle: water 101 % of control | dose: 25.0 mg/kg/injection, schedule: Q04DX003 (ip), vehicle: water 96 % of control

CC(=O)Nc1nc2[nH]ccc2c(=O)[nH]1
inactive: [28] 106 % of control | [29] 104 % of control | [30] 103 % of control

O=C(O)c1ccccc1NC(c1ccccc1)c1ccc2cccnc2c1O (stereo unspecified)
inactive: [11] 89 % of control | dose: 200.0 mg/kg/injection, schedule: Q01DX001 (ip), vehicle: saline 89 % of control

O=C1Nc2ccccc2C12CNCS2 (stereo unspecified)
inactive: [25] 104 % of control | [26] 98 % of control | [27] 95 % of control

CCNC(=O)SCCSC(=O)NCC
inactive: dose: 100.0 mg/kg/injection, schedule: Q01DX009 (ip), vehicle: other 92 % of control | dose: 200.0 mg/kg/injection, schedule: Q01DX009 (ip), vehicle: other 93 % of control | dose: 400.0 mg/kg/injection, schedule: Q01DX009 (ip), vehicle: other 92 % of control

CC(C)NC(=O)CCSCCC(=O)NC(C)C
inactive: dose: 200.0 mg/kg/injection, schedule: Q04DX002 (ip), vehicle: other 94 % of control | dose: 400.0 mg/kg/injection, schedule: Q04DX002 (ip), vehicle: other 94 % of control

Cc1cncn1Cc1ccc([N+](=O)[O-])cc1
inactive: [13] 101 % of control and 102 % of control | dose: 25.0 mg/kg/injection, schedule: Q04DX002 (ip), vehicle: saline 106 % of control and 115 % of control | [24] 98 % of control and 108 % of control | dose: 50.0 mg/kg/injection, schedule: Q04DX002 (ip), vehicle: saline 97 % of control and 100 % of control | [19] 96 % of control

CCCCNCCC(SS)c1ccc(Cl)cc1 (stereo unspecified)
inactive: [23] 106 % of control | [17] 92 % of control | [1] 88 % of control | [2] 93 % of control

CC(C)(C)NC(=O)CCC1CC(=O)NC12CCCCC2 (stereo unspecified)
inactive: dose: 75.0 mg/kg/injection, schedule: Q01DX009 (ip), vehicle: Klucel (hydroxypropylcellulose) (HPC) 90 % of control | dose: 150.0 mg/kg/injection, schedule: Q01DX009 (ip), vehicle: Klucel (hydroxypropylcellulose) (HPC) 91 % of control | dose: 300.0 mg/kg/injection, schedule: Q01DX009 (ip), vehicle: Klucel (hydroxypropylcellulose) (HPC) 96 % of control

CCOC(=O)/C(C#N)=C1\CCC=C(C)C1
inactive: [28] 97 % of control | [29] 102 % of control | [30] 98 % of control

CCOC(=O)CC(=O)Cc1cccc([N+](=O)[O-])c1
inactive: [21] 91 % of control | [8] 100 % of control | [22] 88 % of control | [9] 107 % of control | [10] 107 % of control

CS(=O)(=O)Oc1ccc(Cl)c2ccccc12
inactive: [14] 98 % of control | [15] 101 % of control | [16] 95 % of control
